Like-named read-outs stand apart in the source and are kept apart here. Marks after values point to notes of the source that are not given here. Values belong to the molecule of their own block, whether it stands above or below them.
Legend:
rats [1] = assay: 28-day repeated dose study in rats with mass spectrometry-based plasma metabolite profiling (GC-MS, LC-MS, SPE-LC-MS); treatment ratios versus control; conditions: plasma; for Arginine, treatment ratio versus control / Indole-3-lactic acid, treatment ratio versus control / Ketoleucine, treatment ratio versus control / Proline, treatment ratio versus control / Tryptophan, treatment ratio versus control / trans-4-Hydroxyproline, treatment ratio versus control: Table 4b inhibition of weak acid excretion
rats [2] = conditions: rat, in vivo
[3] = male rats, day 7, high dose, Table 6b ACE inhibitor induced like toxicity
[4] = male rats, day 7, high dose, Table 1d diuretic effect
[5] = male rats, day 14, high dose, Table 1c diuretic effect
[6] = male rats, day 14, high dose, Table 6b ACE inhibitor induced like toxicity
[7] = male rats, day 14, high dose, Table 1d diuretic effect
[8] = male rats, day 28, high dose, Table 6b ACE inhibitor induced like toxicity
[9] = male rats, day 28, high dose, Table 1d diuretic effect
[10] = female rats, day 14, high dose, Table 2a glomerular-tubular defect
[11] = female rats, day 14, high dose, Table 2b glomerular-tubular defect
[12] = female rats, day 28, high dose, Table 2a glomerular-tubular defect
[13] = female rats, day 28, high dose, Table 2b glomerular-tubular defect
[14] = male rats, day 7, high dose, Table 2d glomerular-tubular defect
[15] = male rats, day 14, high dose, Table 2c glomerular-tubular defect
[16] = male rats, day 14, high dose, Table 2d glomerular-tubular defect
[17] = male rats, day 28, high dose, Table 2c glomerular-tubular defect
[18] = male rats, day 28, high dose, Table 2d glomerular-tubular defect
[19] = female rats, day 7, high dose, Table 4a inhibition of weak acid excretion
[20] = female rats, day 14, high dose, Table 4a inhibition of weak acid excretion
[21] = female rats, day 28, high dose, Table 4a inhibition of weak acid excretion

Threonine, treatment ratio versus control (rats [1]; male rats, day 7, high dose, Table 1c diuretic effect): 0.99^
Glutamate, treatment ratio versus control (rats [1]; [4]): 0.94 *
Lysophosphatidylcholine (C20:4), treatment ratio versus control (rats [1]; [4]): 0.97^
Malate, treatment ratio versus control (rats [1]; [4]): 0.75 *
Ceramide (d18:1, C24:0), treatment ratio versus control (rats [1]; [5]): 1.19 *
Choline plasmalogen No 03, treatment ratio versus control (rats [1]; [5]): 1.1 *
Sphingomyelin (d18:2, C16:0), treatment ratio versus control (rats [1]; [5]): 1.38 *
Glutamate, treatment ratio versus control (rats [1]; [7]): 0.85 *
Lysophosphatidylcholine (C20:4), treatment ratio versus control (rats [1]; [7]): 0.94^
Malate, treatment ratio versus control (rats [1]; [7]): 0.6 *
Glutamate, treatment ratio versus control (rats [1]; [9]): 0.87 *
Lysophosphatidylcholine (C20:4), treatment ratio versus control (rats [1]; [9]): 0.9 *
Malate, treatment ratio versus control (rats [1]; [9]): 0.65 *
1,5-Anhydrosorbitol, treatment ratio versus control (rats [2]): 1.22 *
SMILES: NCCCC[C@H](N[C@@H](CCc1ccccc1)C(=O)O)C(=O)N1CCC[C@H]1C(=O)O [Lisinopril]
Lysine, treatment ratio versus control (rats [1]; male rats, day 7, high dose, Table 6a ACE inhibitor induced like toxicity): 0.92^
Cytosine, treatment ratio versus control (rats [1]; [3]): 0.97^
Glutamate, treatment ratio versus control (rats [1]; [3]): 0.94 *
1,5-Anhydrosorbitol, treatment ratio versus control (rats [1]; male rats, day 14, high dose, Table 6a ACE inhibitor induced like toxicity): 1.2 *
Cytosine, treatment ratio versus control (rats [1]; [6]): 0.89 *
Glutamate, treatment ratio versus control (rats [1]; [6]): 0.85 *
1,5-Anhydrosorbitol, treatment ratio versus control (rats [1]; male rats, day 28, high dose, Table 6a ACE inhibitor induced like toxicity): 1.53 *
Cytosine, treatment ratio versus control (rats [1]; [8]): 1
Glutamate, treatment ratio versus control (rats [1]; [8]): 0.87 *

3-Hydroxyindole, treatment ratio versus control (rats [1]; [10]): 0.87^
3-Indoxylsulfate, treatment ratio versus control (rats [1]; [10]): 0.93^
Creatinine, treatment ratio versus control (rats [1]; [10]): 1.69 *
Elaidic acid (C18:trans[9]1), treatment ratio versus control (rats [1]; [10]): 1.2
Adrenaline (Epinephrine), treatment ratio versus control (rats [1]; [11]): 0.55 *
Glucosamine, treatment ratio versus control (rats [1]; [11]): 0.75^
Mannosamine, treatment ratio versus control (rats [1]; [11]): 0.64 *
3-Hydroxyindole, treatment ratio versus control (rats [1]; [12]): 1.53 *
Elaidic acid (C18:trans[9]1), treatment ratio versus control (rats [1]; [12]): 1.35 *
Glucosamine, treatment ratio versus control (rats [1]; [13]): 0.48 *
Histamine, treatment ratio versus control (rats [1]; [13]): 0.52 *
Mannosamine, treatment ratio versus control (rats [1]; [13]): 0.5 *
4-Hydroxy-3-methoxyphenylglycol (HMPG), treatment ratio versus control (rats [1]; [14]): 0.91 *
Cysteine, treatment ratio versus control (rats [1]; [14]): 0.46 *
Isopalmitic acid (C16:0), treatment ratio versus control (rats [1]; [14]): 0.75 *
Metanephrine, treatment ratio versus control (rats [1]; [14]): 0.83 *
Normetanephrine, treatment ratio versus control (rats [1]; [14]): 0.79 *
Creatine, treatment ratio versus control (rats [1]; [15]): 1.35 *
Creatinine, treatment ratio versus control (rats [1]; [15]): 1.8 *
Threonic acid, treatment ratio versus control (rats [1]; [15]): 1.4 *
4-Hydroxy-3-methoxyphenylglycol (HMPG), treatment ratio versus control (rats [1]; [16]): 0.84 *
Cysteine, treatment ratio versus control (rats [1]; [16]): 0.51 *
Metanephrine, treatment ratio versus control (rats [1]; [16]): 0.43 *
Normetanephrine, treatment ratio versus control (rats [1]; [16]): 0.66 *
Creatine, treatment ratio versus control (rats [1]; [17]): 1.27 *
Glycerol-3-phosphate, polar fraction, treatment ratio versus control (rats [1]; [17]): 1.4 *
Lysophosphatidylcholine (C18:2), treatment ratio versus control (rats [1]; [17]): 1.1
Threonic acid, treatment ratio versus control (rats [1]; [17]): 1.7 *
4-Hydroxy-3-methoxyphenylglycol (HMPG), treatment ratio versus control (rats [1]; [18]): 0.79 *
Cysteine, treatment ratio versus control (rats [1]; [18]): 0.85 *
Metanephrine, treatment ratio versus control (rats [1]; [18]): 0.68 *
Normetanephrine, treatment ratio versus control (rats [1]; [18]): 0.68 *
3-Indoxylsulfate, treatment ratio versus control (rats [2]): 1.41 *
Adrenaline (Epinephrine), treatment ratio versus control (rats [2]): 1.14^
Histamine, treatment ratio versus control (rats [2]): 1.36^
Threonic acid, treatment ratio versus control (rats [2]): 1.47 *
SMILES: CC(C)(S)[C@@H](N)C(=O)O [Penicillamine]

SMILES: Oc1c(Cl)c(Cl)c(Cl)c(Cl)c1Cl [Pentachlorophenol]
Glycerol, lipid fraction, treatment ratio versus control (rats [1]; [19]): 1.56 *
Linoleic acid (C18:cis[9,12]2), treatment ratio versus control (rats [1]; [19]): 1.35 *
Lysophosphatidylcholine (C18:2), treatment ratio versus control (rats [1]; [19]): 1.32 *
Phosphatidylcholine (C16:0, C16:0), treatment ratio versus control (rats [1]; [19]): 1.04^
Phosphatidylcholine (C16:0, C18:2), treatment ratio versus control (rats [1]; [19]): 1.02^
Phosphatidylcholine (C16:0, C20:5), treatment ratio versus control (rats [1]; [19]): 1.05 *
Phosphatidylcholine (C16:1, C18:2), treatment ratio versus control (rats [1]; [19]): 0.87^
Phosphatidylcholine (C18:0, C18:1), treatment ratio versus control (rats [1]; [19]): 0.98^
Phosphatidylcholine (C18:1, C18:2), treatment ratio versus control (rats [1]; [19]): 0.85^
gamma-Linolenic acid (C18:cis[6,9,12]3), treatment ratio versus control (rats [1]; [19]): 0.78 *
Arginine, treatment ratio versus control (rats [1]; female rats, day 7, high dose): 0.56 *
Indole-3-lactic acid, treatment ratio versus control (rats [1]; female rats, day 7, high dose): 0.62 *
Ketoleucine, treatment ratio versus control (rats [1]; female rats, day 7, high dose): 0.6 *
Proline, treatment ratio versus control (rats [1]; female rats, day 7, high dose): 0.73 *
Tryptophan, treatment ratio versus control (rats [1]; female rats, day 7, high dose): 0.6 *
trans-4-Hydroxyproline, treatment ratio versus control (rats [1]; female rats, day 7, high dose): 0.87 *
Glycerol, lipid fraction, treatment ratio versus control (rats [1]; [20]): 2.38 *
Linoleic acid (C18:cis[9,12]2), treatment ratio versus control (rats [1]; [20]): 1.8 *
Lysophosphatidylcholine (C18:2), treatment ratio versus control (rats [1]; [20]): 1.41 *
Phosphatidylcholine (C16:0, C16:0), treatment ratio versus control (rats [1]; [20]): 1.25 *
Phosphatidylcholine (C16:0, C18:2), treatment ratio versus control (rats [1]; [20]): 1.34 *
Phosphatidylcholine (C16:0, C20:5), treatment ratio versus control (rats [1]; [20]): 1.57 *
Phosphatidylcholine (C16:1, C18:2), treatment ratio versus control (rats [1]; [20]): 1.32 *
Phosphatidylcholine (C18:0, C18:1), treatment ratio versus control (rats [1]; [20]): 1.54 *
Phosphatidylcholine (C18:1, C18:2), treatment ratio versus control (rats [1]; [20]): 1.4 *
gamma-Linolenic acid (C18:cis[6,9,12]3), treatment ratio versus control (rats [1]; [20]): 1.81^
Arginine, treatment ratio versus control (rats [1]; female rats, day 14, high dose): 0.72^
Indole-3-lactic acid, treatment ratio versus control (rats [1]; female rats, day 14, high dose): 0.65 *
Ketoleucine, treatment ratio versus control (rats [1]; female rats, day 14, high dose): 0.64 *
Proline, treatment ratio versus control (rats [1]; female rats, day 14, high dose): 0.74 *
Tryptophan, treatment ratio versus control (rats [1]; female rats, day 14, high dose): 0.62 *
trans-4-Hydroxyproline, treatment ratio versus control (rats [1]; female rats, day 14, high dose): 0.92^
Glycerol, lipid fraction, treatment ratio versus control (rats [1]; [21]): 1.61 *
Linoleic acid (C18:cis[9,12]2), treatment ratio versus control (rats [1]; [21]): 1.73 *
Lysophosphatidylcholine (C18:2), treatment ratio versus control (rats [1]; [21]): 1.66 *
Phosphatidylcholine (C16:0, C16:0), treatment ratio versus control (rats [1]; [21]): 1.1 *
Phosphatidylcholine (C16:0, C18:2), treatment ratio versus control (rats [1]; [21]): 1.49 *
Phosphatidylcholine (C16:0, C20:5), treatment ratio versus control (rats [1]; [21]): 1.67 *
Phosphatidylcholine (C16:1, C18:2), treatment ratio versus control (rats [1]; [21]): 1.54 *
Phosphatidylcholine (C18:0, C18:1), treatment ratio versus control (rats [1]; [21]): 1.41 *
Phosphatidylcholine (C18:1, C18:2), treatment ratio versus control (rats [1]; [21]): 1.3 *
gamma-Linolenic acid (C18:cis[6,9,12]3), treatment ratio versus control (rats [1]; [21]): 3.23 *
Arginine, treatment ratio versus control (rats [1]; female rats, day 28, high dose): 0.44 *
Indole-3-lactic acid, treatment ratio versus control (rats [1]; female rats, day 28, high dose): 0.49 *
Ketoleucine, treatment ratio versus control (rats [1]; female rats, day 28, high dose): 0.6 *
Proline, treatment ratio versus control (rats [1]; female rats, day 28, high dose): 0.74 *
Tryptophan, treatment ratio versus control (rats [1]; female rats, day 28, high dose): 0.54 *
trans-4-Hydroxyproline, treatment ratio versus control (rats [1]; female rats, day 28, high dose): 0.94 *

From patent publication US20150011423A1, “MEANS AND METHODS FOR ASSESSING KIDNEY TOXICITY” (BASF SE, priority 2011, published 2015)
